Usually melting point stands for the temperature of the solid-liquid transition. One may read the EC50 as the concentration at which the effect is half-maximal.

The nature of data set [1]: in vitro. The conditions noted are these: African green monkey.
Data set [2] relates to DENV-2 16681 strain. As to the kind of experiment: DENV-2 antiviral assay (eGFP-labeled virus, Vero cells). Type of data set: cell-based, Dengue virus. The conditions noted are these: for EC50: DENV-2 16681 eGFP, Vero cells, MOI 0.5, 3 days; for SI: SI=CC50/EC50, DENV-2 antiviral assay. On the procedure:
The antiviral activity of all the compounds of the invention was tested against the DENV-2 16681 strain which was labeled with enhanced green fluorescent protein (eGPF). The culture medium consists of minimal essential medium supplemented with 2% of heat-inactivated fetal calf serum, 0.04% gentamycin (50 mg/mL) and 2 mM of L-glutamine. Vero cells, obtained from ECACC, were suspended in culture medium and 25 μL was added to 384-well plates (2500 cells/well), which already contain the antiviral compounds. Typically, these plates contain a 5-fold serial dilution of 9 dilution steps of the test compound at 200 times the final concentration in 100% DMSO (200 nL). […] Finally, each plate contains wells which are assigned as virus controls (containing cells and virus in the absence of compound), cell controls (containing cells in the absence of virus and compound) and medium controls (containing medium in the absence of cells, virus and compounds). To the wells assigned as medium control, 25 μL of culture medium was added instead of Vero cells. Once the cells were added to the plates, the plates were incubated for 30 minutes at room temperature to allow the cells to distribute evenly within the wells. Next, the plates were incubated in a fully humidified incubator (37° C., 5% CO2) until the next day. Then, DENV-2 strain 16681, labeled with eGFP, was added at a multiplicity of infection (MOI) of 0.5. Therefore, 15 μL of virus suspension was added to all the wells containing test compound and to the wells assigned as virus control. In parallel, 15 μL of culture medium was added to the medium and cell controls. Next, the plates were incubated for 3 days in a fully humidified incubator (37° C., 5% CO2). At the day of the read out, the eGFP fluorescence was measured using an automated fluorescence microscope at 488 nm (blue laser). Using an in-house LIMS system, inhibition dose response curves for each compound were calculated and the half maximal effective concentration (EC50) was determined. Therefore, the percent inhibition (I) for every test concentration is calculated using the following formula: I=100*([…])/(SVC−SCC); ST, SCC and SVC are the amount of eGFP signal in the test compound, cell control and virus control wells, respectively. The EC50 represents the concentration of a compound at which the virus replication is inhibited with 50%, as measured by a 50% reduction of the eGFP fluorescent intensity compared to the virus control. The EC50 is calculated using linear interpolation (Table 1).

The test system of data set [3] is DENV-4 strain H241. As to the kind of experiment: Tetravalent RT-qPCR assay, serotype 4. Type of data set: cell-based, Dengue virus. To be noted: for EC50: Dengue virus, DENV4, Vero, 72 h, RT-qPCR serotype 4 H241, Protocol A, Vero cells, day 3; for SI: RT-qPCR serotype 4 H241. As for the experimental part: (§1) The antiviral activity of the compounds of the invention was tested against DENV-1 strain TC974#666 (NCPV), DENV-2 strain 16681, DENV-3 strain H87 (NCPV) and DENV-4 strain H241 (NCPV) in a RT-qPCR assay. Therefore, Vero cells were infected with either DENV-1, or -2, or -3, or -4 in the presence or absence of test compounds. At day 3 post-infection, the cells were lysed and cell lysates were used to prepare cDNA of both a viral target (the 3′UTR of DENV; Table 2) and a cellular reference gene (β-actin, Table 2). Subsequently, a duplex real time PCR was performed on a Lightcycler480 instrument. The generated Cp value is inversely proportional to the amount of RNA expression of these targets. Inhibition of DENV replication by a test compound result in a shift of Cp's for the 3′UTR gene. On the other hand, if a test compound is toxic to the cells, a similar effect on β-actin expression will be observed. The comparative ΔΔCp method is used to calculate EC50, which is based on the relative gene expression of the target gene (3′UTR) normalized with the cellular housekeeping gene (β-actin). In addition, CC50 values are determined based on the Cp values acquired for the housekeeping gene β-actin.
(§2) The culture medium consisted of minimal essential medium supplemented with 2% of heat-inactivated fetal calf serum, 0.04% gentamycin (50 mg/mL) and 2 mM of L-glutamine. Vero cells, obtained from ECACC, were suspended in culture medium and 75 μL/well was added in 96-well plates (10000 cells/well), which already contain the antiviral compounds. […] In addition, each plate contains wells which are assigned as virus controls (containing cells and virus in the absence of compound) and cell controls (containing cells in the absence of virus and compound). Once the cells were added in the plates, the plates were incubated in a fully humidified incubator (37° C., 5% CO2) until the next day. Dengue viruses serotype-1, 2, 3 and 4 were diluted in order to obtain a Cp of ˜22-24 in the assay. Therefore, 25 μL of virus suspension was added to all the wells containing test compound and to the wells assigned as virus control. In parallel, 25 μL of culture medium was added to the cell controls. Next, the plates were incubated for 3 days in a fully humidified incubator (37° C., 5% CO2). After 3 days, the supernatant was removed from the wells and the cells were washed twice with ice-cold PBS (˜100 μL). The cell pellets within the 96-well plates were stored at −80° C. for at least 1 day. Next, RNA was extracted using the Cells-to-CT™ lysis kit, according to the manufacturer's guideline (Life Technologies). The cell lysates can be stored at −80° C. or immediately used in the reverse transcription step.
(§3) In preparation of the reverse transcription step, mix A (table 3A) was prepared and 7.57 μL/well was dispensed in a 96-well plate. After addition of 5 μL of the cell lysates, a five minute denaturation step at 75° C. was performed (table 3B). Afterwards, 7.43 μL of mix B was added (table 3C) and the reverse transcription step was initiated (table 3D) to generate cDNA.
(§4) Finally, a RT-qPCR mix was prepared, mix C (table 4A), and 22.02 μL/well was dispensed in 96-well LightCycler qPCR plates to which 3 μL of cDNA was added and the qPCR was performed according to the conditions in table 4B on a LightCycler 480.
(§5) Using the LightCycler software and an in-house LIMS system, dose response curves for each compound were calculated and the half maximal effective concentration (EC50) and the half maximal cytotoxic concentration (CC50) were determined (Tables 5-8).
In general terms: Quantitative PCR measures a nucleic acid by following its amplification.

For data set [4], the system named is DENV-2 strain 16681. As to the kind of experiment: Tetravalent RT-qPCR assay, serotype 2. The conditions noted are these: for EC50: Dengue virus, DENV2, Vero, 72 h, RT-qPCR serotype 2 16681, Protocol A, Vero cells, day 3; for SI: RT-qPCR serotype 2 16681. Type of data set: cell-based, Dengue virus. On the procedure:
as §1, §2, §3, §4, §5

The test system of data set [5] is DENV-1 strain TC974#666. As to the kind of experiment: Tetravalent RT-qPCR assay, serotype 1. Type of data set: cell-based, Dengue virus. To be noted: for EC50: Dengue virus, DENV1, Vero, 72 h, RT-qPCR serotype 1 TC974#666, Protocol A, Vero cells, day 3; for SI: RT-qPCR serotype 1 TC974#666. On the procedure: as §1, §2, §3, §4, §5
Data set [6] concerns DENV-3 strain H87. As to the kind of experiment: Tetravalent RT-qPCR assay, serotype 3. To be noted: for EC50: Dengue virus, DENV3, Vero, 72 h, RT-qPCR serotype 3 H87, Protocol A, Vero cells, day 3; for SI: RT-qPCR serotype 3 H87. Type of data set: cell-based, Dengue virus. On the procedure:
as §1, §2, §3, §4, §5

Data set [7] can be described thus: in vitro. In kind it is cell-based. To be noted: African green monkey, CC50. As for the experimental part:
as §1, §2, §5

For data set [8], the system named is Vero cells. To be noted: African green monkey.

Read-outs that look alike come from different tables or passages of the source.

`COc1cc(NC(C(=O)c2c[nH]c3c(C)cc(Cl)cc23)c2ccc(F)cc2OC)cc(OCCO)c1` (racemic) [Compound 1, 1-(5-chloro-7-methyl-1H-indol-3-yl)-2-(4-fluoro-2-methoxyphenyl)-2-((3-(2-hydroxyethoxy)-5-methoxyphenyl)amino)ethanone] showed a melting point of 118 °C. This compound also came in with a CC50 in [1] of 4900 nM. For the same compound, the EC50 in data set [2] (Dengue virus, DENV2, Vero, 72 h) was determined as 2.7 nM. This compound yielded an SI in [2] of 1800.
Turning to `COc1cc(NC(C(=O)c2c[nH]c3c(C)cc(Cl)cc23)c2ccc(F)cc2OC)cc(OCCO)c1` (single isomer, unassigned) [Compound 1A], the EC50 is 220 nM in [3]; 3.2 nM in [4]; 6.2 nM in [5] (read-out: EC50); 39 nM in data set [6] (read-out: EC50); 1.7 nM in [2]. The SI amounted to 8.7 in [3]; 1080 in data set [4]; 461 in [5]; 49 in data set [6]; 2070 in data set [2]. The same compound came in with a CC50 at 3 days in data set [7] of 2900 nM. The compound also returned a CC50 in [8] of 3600 nM.
Turning to `COc1cc(NC(C(=O)c2c[nH]c3cc(OC)c(Cl)cc23)c2ccc(F)cc2OC)cc(OCCO)c1` (single isomer, unassigned) [Compound 2A], the concentration for a half-maximal effect (EC50) in data set [3] is 230 nM; in data set [4], 1 nM; in [5] (read-out: EC50), 9.2 nM; in data set [6] (read-out: EC50), 34 nM; in data set [2] it was 0.71 nM. The SI in [3] is 9.1; in data set [4], 3350; in data set [5], 350; in [6], 90; in data set [2] it was 6340. In data set [7], this compound registered a CC50 at 3 days of 2900 nM. In addition, the CC50 in data set [8] was 4500 nM.
In the case of `COc1cc(NC(C(=O)c2c[nH]c3cc(OC(F)(F)F)c(C)cc23)c2ccc(F)cc2OC)cc(OCCO)c1` (single isomer, unassigned) [Compound 4B], the EC50 in data set [3] turned out to be 300 nM; in data set [4] it was 6.6 nM; in data set [5] (read-out: EC50), 24 nM; in data set [6] (read-out: EC50), 120 nM; in data set [2], 8.1 nM. The SI was determined as 8.1 in data set [3]; 553 in data set [4]; 128 in [5]; 16 in data set [6]; 409 in data set [2]. For the same compound, the CC50 at 3 days in data set [7] amounted to 3800 nM. Also, the CC50 in data set [8] stood at 3300 nM.
Regarding `COc1cc(NC(C(=O)c2c[nH]c3ccc(C)cc23)c2ccc(F)cc2OC)cc(OCCO)c1` (single isomer, unassigned) [Compound 5A], the CC50 in data set [1] was 5800 nM. In addition, the EC50 worked out at 270 nM in data set [3]; 2.7 nM in data set [4]; 7 nM in data set [5] (read-out: EC50); 50 nM in data set [6] (read-out: EC50); 2.5 nM in data set [2]. For the same compound, the SI in data set [3] worked out at 21; in data set [4] it was 4290; in data set [5], 1430; in [6] it was 207; in [2], 2910. Also, in data set [7], the CC50 at 3 days is 10000 nM.
As to `COc1cc(NC(C(=O)c2c[nH]c3cc(F)c(C)cc23)c2ccc(Cl)cc2OC)cc(OCCO)c1` (single isomer, unassigned) [Compound 9B], the EC50 worked out at 92 nM in data set [3]; 0.69 nM in data set [4]; 1.4 nM in data set [5] (read-out: EC50); 16 nM in [6] (read-out: EC50); 0.44 nM in data set [2]. Further, the SI in data set [3] is given as 28; in data set [4], 5540; in data set [5], 1700; in data set [6] it was 234; in [2], 7480. In data set [7], this compound showed a CC50 at 3 days of 3000 nM.
As to `[2H]C(Nc1cc(OC)cc(OCCO)c1)(C(=O)c1c[nH]c2cc(OC)c(C)cc12)c1ccc(Cl)cc1OC` (single isomer, unassigned) [Compound 14A-D], the CC50 in data set [1] was determined as 3600 nM. Also, the EC50 is 74 nM in data set [3]; 0.29 nM in data set [4]; 3 nM in data set [5]; 9.8 nM in [6]; 0.26 nM in [2]. The SI in data set [3] was over 46; in data set [4] it was over 11900; in [5], 1070; in data set [6] it was over 261; in data set [2], 17600. Further, the CC50 at 3 days in data set [7] was over 2300 nM.
Take `COc1cc(NC(C(=O)c2c[nH]c3ccc(S(F)(F)(F)(F)F)cc23)c2ccc(Cl)cc2OC)cc(OCCO)c1` (single isomer, unassigned) [Compound 15A]: the EC50 stood at 14 nM in data set [3]; 0.11 nM in data set [4]; 0.13 nM in data set [5] (read-out: EC50); 4.4 nM in [6] (read-out: EC50); 0.17 nM in [2]. Also, the SI in data set [3] turned out to be 84; in data set [4], 21200; in data set [5], 16100; in data set [6] it was 361; in data set [2] it was 16000. Besides, the CC50 in data set [8] stood at 2700 nM.

Source of the values: patent publication US10730884B2, “Substituted indole compound derivatives as dengue viral replication inhibitors” (Janssen Pharmaceuticals, Inc., priority 2016, dated 2020).
